Reference: publication PMC3725993 (Bioorganic & medicinal chemistry letters, 2013)
Each block holds one compound with its values, some of them ahead of it.

Assays:
Water solubility = type: physicochemical; settings: statement in words
[1] = rats; cited from earlier work
[2] = rat behavioral model; cited from earlier work

water solubility (Water solubility): water-soluble
SMILES: COc1ccc(CC[C@@H]2CC[C@H](CCc3ccc(OC)cc3)N2C[C@@H](O)CO)cc1.Cl [Compound 11d]

SMILES: COc1ccc(CC[C@H]2CCC[C@@H](CCc3ccc(OC)cc3)N2C[C@@H](O)CO)cc1 [Compound 3]
METH self-administration (SA) and reward [1]: blocked
responding for food [1]: no effect

water solubility (Water solubility): water-soluble
SMILES: Cl.OC[C@H](O)CN1[C@H](CCc2ccc(OC(F)F)cc2)CC[C@@H]1CCc1ccc(OC(F)F)cc1 [Compound 11f]

SMILES: CN1[C@@H](CC(=O)c2ccccc2)CCC[C@H]1C[C@H](O)c1ccccc1 [(−)-Lobeline]
rewarding effects of methamphetamine [2]: decrease
